Like-named read-outs stand apart in the source and are kept apart here.
What was measured:
HL-60(TB) = assay: NCI screening panel (SRB); assay type: cell-based; details: Homo sapiens, HL-60(TB) (Leukemia), 48 h; for CC50: read-out: LC50 (the source's name)
K-562 = assay: NCI screening panel (SRB); assay type: cell-based; details: Homo sapiens, K562, K-562 (Leukemia), 48 h; for CC50: read-out: LC50 (the source's name)
SR = assay: NCI screening panel (SRB); assay type: cell-based; details: Homo sapiens, SR (Leukemia), 48 h; for CC50: read-out: LC50 (the source's name)
NCI-H460 = assay: NCI screening panel (SRB); assay type: cell-based; details: Homo sapiens, NCI-H460 (NSCLC), 48 h; for CC50: read-out: LC50 (the source's name)
HT29 = assay: NCI screening panel (SRB); assay type: cell-based; details: Homo sapiens, HT-29, HT29 (Colon), 48 h; for CC50: read-out: LC50 (the source's name)
KM12 = assay: NCI screening panel (SRB); assay type: cell-based; details: Homo sapiens, KM12 (Colon), 48 h; for CC50: read-out: LC50 (the source's name)
SW-620 = assay: NCI screening panel (SRB); assay type: cell-based; details: Homo sapiens, SW-620 (Colon), 48 h; for CC50: read-out: LC50 (the source's name)
SNB-75 = assay: NCI screening panel (SRB); assay type: cell-based; details: Homo sapiens, SNB-75 (CNS), 48 h; for CC50: read-out: LC50 (the source's name)
MALME3-M = assay: NCI screening panel (SRB); assay type: cell-based; details: Homo sapiens, Malme-3M, MALME3-M (Melanoma), 48 h; for CC50: read-out: LC50 (the source's name)
OVCAR-4 = assay: NCI screening panel (SRB); assay type: cell-based; details: Homo sapiens, OVCAR-4 (Ovarian), 48 h; for CC50: read-out: LC50 (the source's name)
TK-10 = assay: NCI screening panel (SRB); assay type: cell-based; details: Homo sapiens, TK-10 (Renal), 48 h; for CC50: read-out: LC50 (the source's name)
Microsomal stability = assay type: in vitro ADME; details: Human liver microsomes with NADPH; for Remaining Percentage (%) after 60 min: 1 μM
Experimental: Working stocks were initially diluted to a concentration of 40.0 μM in 0.1 M potassium phosphate buffer before addition to the reaction vials. Pooled mouse (CD-1, male) or human (50 donors) liver microsomes were utilized at a final concentration of 0.5 mg/ml. […] Reactions were carried out at 37° C. in a shaker, and the final concentration of DMSO was kept constant at 0.01%. The final volume for each reaction was 100 μL, which includes the addition of an NADPH-Regeneration solution (NRS) mix. This NRS mix is comprised of glucose 6-phosphate dehydrogenase (0.4 U/mL), NADP+(1.3 mM), MgCl2 (3.3 mM), and glucose 6-phosphate (3.3 mM) in assay mixtures. […] Samples were then centrifuged at 4,000 rpm for 10 minutes to remove debris and precipitated protein. Approximately 150 μL of supernatant was subsequently transferred to a new 96 well microplate for LC/MS analysis.
Narrow-window mass extraction LC/MS analysis was performed for all samples using a Waters Xevo quadrupole time-of-flight (QTof) mass spectrometer and an ACQUITY UPLC system, to determine relative peak areas of parent compound.

[1] = Plasma and brain exposure in male CD-1 mice (Brain PK); assay type: in vivo; details: CD-1, mouse, brain; for AUC(0-t): read-out: AUC0-tlast; for half-life: read-out: Apparent t1/2 (converted); for MRT last: read-out: MRT0-tlast
Experimental: Animals: Male CD-1 mice (20-25 g) from Charles River Labs will be acclimatized for a minimum of 5 days prior to dosing. Body weights will be recorded on the day of dosing. Food restriction: Animals dosed p.o. will be deprived of food overnight and fed ˜2 h following dosing. Clinical observations: Animals will be observed at the time of dosing and each sample collection. Any abnormalities will be documented. Dosing: Formulations will be administered i.v. via the tail vein and p.o. by gavage with disposable feeding needles. Sample collection: Terminal blood samples will be collected under O2/CO2 anesthesia by cardiac puncture and then the brain and lungs will be excised blotted and weighed. Sample processing/storage: All blood samples will be transferred into K2EDTA tubes and centrifuged (6,800 rpm for 5 min at 4° C.) to obtain plasma. All samples will be stored frozen at −80° C. until bioanalysis. Sample retention: Plasma, brain and lung samples will be analyzed and any remaining samples will be stored frozen at −80° C. until the study is completed.

OVCAR-3 = assay: NCI screening panel (SRB); details: Homo sapiens, OVCAR-3, 48 h; for CC50: read-out: LC50
EGFR (L858R, T790M) = EGFR (L858R, T790M) (Homo sapiens, UniProt P00533, L858R/T790M); assay: Kinase assays, selectivity panel (qPCR); details: read-out: % Control @ 300 nM
in vitro = details: human, Caco-2, pH 7.4
Experimental: At this stage of growth, cell monolayers were fully polarized and differentiated.
The permeability assay buffer was Hanks Balanced Salt Solution containing 10 mM HEPES and 15 mM glucose at a pH of 7.4. The dosing buffer contained 5 μM metoprolol (positive control), 5 μM atenolol (negative control) and 100 μM lucifer yellow. The buffer in the receiver chamber also contained 1% bovine serum albumin (BSA). The dosing solution concentration was 5 μM in the assay buffer. Digoxin (20 μM) was used as Pgp substrate control.
The known Pgp inhibitor was co-dosed at 50 μM with compound at 5 μM.
Cell monolayers were dosed on the apical side (A-to-B) or basolateral side (B-to-A) and incubated at 37° C. in a shaker (65 rpm). Samples were taken from the donor and receiver chambers at 120 minutes. Each determination was performed in duplicate.
Narrow-window mass extraction LC/MS analysis was performed for all samples from this study using a Waters Xevo quadrupole time-of-flight (QTof) mass spectrometer, to determine relative peak areas of parent compound. The percent of transported drug was calculated based on these peak areas, relative to the initial, dosing concentration.

Chain of EGFR (L858R, T790M) (P00533 25-1210 T790M/L858R): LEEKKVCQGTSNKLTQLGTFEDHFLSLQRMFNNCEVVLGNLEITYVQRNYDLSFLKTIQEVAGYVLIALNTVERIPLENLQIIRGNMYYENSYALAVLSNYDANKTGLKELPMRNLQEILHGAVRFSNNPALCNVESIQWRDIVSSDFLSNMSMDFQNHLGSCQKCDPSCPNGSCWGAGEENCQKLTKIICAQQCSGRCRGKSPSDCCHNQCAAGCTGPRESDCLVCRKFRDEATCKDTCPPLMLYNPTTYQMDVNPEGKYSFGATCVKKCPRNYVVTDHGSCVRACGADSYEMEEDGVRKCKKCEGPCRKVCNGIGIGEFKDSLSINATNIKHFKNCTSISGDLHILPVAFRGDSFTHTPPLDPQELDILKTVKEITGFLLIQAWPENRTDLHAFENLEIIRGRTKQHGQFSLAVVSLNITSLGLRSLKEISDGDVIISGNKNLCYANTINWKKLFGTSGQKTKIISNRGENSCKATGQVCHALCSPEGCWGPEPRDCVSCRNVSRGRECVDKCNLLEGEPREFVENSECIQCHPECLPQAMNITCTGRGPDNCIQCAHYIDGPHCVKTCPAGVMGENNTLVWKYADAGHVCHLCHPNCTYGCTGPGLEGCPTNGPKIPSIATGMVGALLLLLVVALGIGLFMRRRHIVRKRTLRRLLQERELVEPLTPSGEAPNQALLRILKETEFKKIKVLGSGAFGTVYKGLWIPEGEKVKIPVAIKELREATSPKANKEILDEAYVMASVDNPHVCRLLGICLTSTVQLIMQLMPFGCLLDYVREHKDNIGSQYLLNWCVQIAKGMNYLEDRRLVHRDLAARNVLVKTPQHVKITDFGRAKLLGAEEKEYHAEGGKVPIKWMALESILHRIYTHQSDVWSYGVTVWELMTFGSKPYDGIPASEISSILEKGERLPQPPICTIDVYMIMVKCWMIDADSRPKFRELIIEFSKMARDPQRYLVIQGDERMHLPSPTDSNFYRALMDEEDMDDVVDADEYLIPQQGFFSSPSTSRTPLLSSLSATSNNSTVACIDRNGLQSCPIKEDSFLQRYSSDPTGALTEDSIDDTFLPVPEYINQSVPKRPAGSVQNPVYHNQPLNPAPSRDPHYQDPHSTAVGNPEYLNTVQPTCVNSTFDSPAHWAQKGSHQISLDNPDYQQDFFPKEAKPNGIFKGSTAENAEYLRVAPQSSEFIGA

| Structure (SMILES) | GI50 (HL-60(TB)) [µM] | CC50 (HL-60(TB)) [µM] | GI50 (K-562) [µM] | CC50 (K-562) [µM] | GI50 (SR) [µM] | CC50 (SR) [µM] | GI50 (NCI-H460) [µM] | CC50 (NCI-H460) [µM] | GI50 (HT29) [µM] | Cmax ([1]; iv, i.v. 1 mg/kg free base) [ng/mL] | Tmax ([1]; iv, i.v. 1 mg/kg free base) [h] | AUC(0-t) ([1]; iv, i.v. 1 mg/kg free base) [ng·h/mL] | half-life ([1]; iv, i.v. 1 mg/kg free base) [h] | MRT last ([1]; iv, i.v. 1 mg/kg free base) [h] | AUC(0-inf) ([1]; po, p.o. 25 mg/kg free base) [ng·h/mL] | Cmax ([1]; po, p.o. 25 mg/kg free base) [ng/mL] | Tmax ([1]; po, p.o. 25 mg/kg free base) [h] | AUC(0-t) ([1]; po, p.o. 25 mg/kg free base) [ng·h/mL] | half-life ([1]; po, p.o. 25 mg/kg free base) [h] | MRT last ([1]; po, p.o. 25 mg/kg free base) [h] | further results |
| --- | --- | --- | --- | --- | --- | --- | --- | --- | --- | --- | --- | --- | --- | --- | --- | --- | --- | --- | --- | --- | --- |
| CN(C)C/C=C/C(=O)Nc1cc2c(Nc3ccc(F)c(Cl)c3F)ncnc2cc1OCCOC(F)F.O=C(O)/C=C\C(=O)O.O=C(O)/C=C\C(=O)O [Example I-9-MA, (E)-N-[4-(3-chloro-2,4-difluoro-anilino)-7-[2-(difluoromethoxy)ethoxy]quinazolin-6-yl]-4-(dimethylamino)but-2-enamide di-maleic acid salt] | 1.73 | 32.2 | 0.459 | 61.9 | 0.439 | 59.2 | 2.56 | 62 | 0.383 | 171 | 0.0833 | 397 | 7.11 | 6.6 | 5960 | 651 | 2 | 5900 | 3.44 | 6.78 | CC50 (HT29): 62.6 µM; GI50 (KM12): 1.88 µM; CC50 (KM12): 29.2 µM; GI50 (SW-620): 1.52 µM; CC50 (SW-620): 52.7 µM; GI50 (SNB-75): 0.129 µM; CC50 (SNB-75): 23.6 µM; GI50 (MALME3-M): 1.42 µM; CC50 (MALME3-M): 6.97 µM; GI50 (OVCAR-4): 0.999 µM; CC50 (OVCAR-4): 32.4 µM; GI50 (TK-10): < 0.01 µM; CC50 (TK-10): 21.8 µM; half-life at 1 μM (Microsomal stability): 0.986 h; microsomal CLint at 1 μM (Microsomal stability): 23.4 µL/min/mg; Remaining Percentage (%) after 60 min (Microsomal stability): 47.73%; AUC(0-inf) ([1]; iv, i.v. 1 mg/kg free base): 420 ng·h/mL; GI50 (OVCAR-3): 0.0811 µM; CC50 (OVCAR-3): 7.44 µM; remaining activity at 0.3 µM (EGFR (L858R, T790M)): 3.5% |
| O=C(/C=C/CN1CCCCC1)Nc1cc2c(Nc3ccc(F)c(Cl)c3F)ncnc2cc1OCCOC(F)F.O=C(O)/C=C\C(=O)O.O=C(O)/C=C\C(=O)O [Example I-10-MA, (E)-N-[4-(3-chloro-2,4-difluoro-anilino)-7-[2-(difluoromethoxy)ethoxy]quinazolin-6-yl]-4-(1-piperidyl)but-2-enamide di-maleic acid salt] | 1.75 | 30.8 | 1.03 | > 100 | 0.816 | > 100 | 2.34 | 54.4 | 1.14 | 1110 | 0.25 | 1710 | 4.75 | 2.99 | 14000 | 3830 | 2 | 13900 | 3.25 | 3.68 | CC50 (HT29): 51.4 µM; GI50 (KM12): 2.67 µM; CC50 (KM12): 34.3 µM; GI50 (SW-620): 1.81 µM; CC50 (SW-620): 34.7 µM; GI50 (SNB-75): 0.274 µM; CC50 (SNB-75): 31 µM; GI50 (MALME3-M): 1.45 µM; CC50 (MALME3-M): 7.44 µM; GI50 (OVCAR-4): 1.31 µM; CC50 (OVCAR-4): 59.9 µM; GI50 (TK-10): < 0.01 µM; CC50 (TK-10): 35.1 µM; half-life at 1 μM (Microsomal stability): 1.45 h; microsomal CLint at 1 μM (Microsomal stability): 15.9 µL/min/mg; Remaining Percentage (%) after 60 min (Microsomal stability): 60.64%; AUC(0-inf) ([1]; iv, i.v. 1 mg/kg free base): 1730 ng·h/mL; GI50 (OVCAR-3): 0.39 µM; CC50 (OVCAR-3): 16.8 µM; remaining activity at 0.3 µM (EGFR (L858R, T790M)): 2.4% |
| CN(C)C/C=C/C(=O)Nc1cc2c(Nc3cccc(Cl)c3F)ncnc2cc1OCCOC(F)F.O=C(O)/C=C\C(=O)O [Example I-5-MA, (E)-N-[4-(3-chloro-2-fluoro-anilino)-7-[2-(difluoromethoxy)ethoxy]quinazolin-6-yl]-4-(dimethylamino)but-2-enamide dimaleic acid salt] |  |  |  |  |  |  |  |  |  |  |  |  |  |  |  |  |  |  |  |  | Papp A→B at 120 min, 5 µM (in vitro): 13.5 ×10⁻⁶ cm/s; Papp B→A at 120 min, 5 µM (in vitro): 6.52 ×10⁻⁶ cm/s |
| CN(C)C/C=C/C(=O)Nc1cc2c(Nc3ccc(F)c(Cl)c3)ncnc2cc1O[C@H]1CCOC1 [Afatinib, reference compound] |  |  |  |  |  |  |  |  |  | 12.7 | 0.0833 | 44.5 | 4.97 | 7.01 | 704 | 83.3 | 4 | 688 | 3.69 | 8.64 | Papp A→B at 120 min, 5 µM (in vitro): 0.81 ×10⁻⁶ cm/s; Papp B→A at 120 min, 5 µM (in vitro): 16 ×10⁻⁶ cm/s |
